Laboratory results from patent US8354402B2, “Polyarylcarboxamides useful as lipid lowering agents” (Janssen Pharmaceutica N.V., priority 2000, dated 2013).

System: ApoB secretion, HepG2 cells
Test: Quantification of the secretion of ApoB (HepG2 cells, immunoprecipitation, scintillation counting)
Type: cell-based
Settings: 24 hours of incubation; for IC50: Homo sapiens
How it was run: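 HepG2 cells in MEM Rega 3 with 10% FCS were treated at 70% confluency with compound (DMSO 0.4% final) for 24 h. Medium ApoB was immunoprecipitated with sheep anti-apoB then rabbit anti-sheep antibody (24 h each, 8° C), and pellet radioactivity was counted by liquid scintillation to give IC50.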

| Structure (SMILES) | IC50 (HepG2, 24 h) | other results |
| --- | --- | --- |
| CC(C)(C)c1ccc(-c2ccccc2C(=O)Nc2ccc(N3CCC(C(C(=O)NCc4ccccc4)c4ccc(F)cc4)CC3)cc2)cc1 (centres unmarked) [Co. No. 255] | 5.04 nM |  |
| COC(=O)C(c1ccccc1)N1CCN(c2ccc(NC(=O)c3ccccc3-c3ccc(C(F)(F)F)cc3)cc2)CC1 (centres unmarked) [Co. No. 240] |  | pIC50 (listed as 240): 7.982 |
| O=C(Nc1ccc(C2=CCN(C(C(=O)OCc3ccccc3)c3ccccc3)CC2)cc1)c1ccccc1-c1ccc(C(F)(F)F)cc1 (centres unmarked) [Co. No. 168] | 132 nM |  |
| O=C(Nc1ccc(N2CCC(C(C(=O)NCc3ccccc3)c3ccc(F)cc3)CC2)cc1)c1ccccc1-c1ccc(C(F)(F)F)cc1 (centres unmarked) [Co. No. 254] | 28.8 nM |  |
| Cc1ccc(-c2ccccc2C(=O)Nc2ccc(N3CCC(C(C(=O)NCc4ccccc4)c4ccccc4)CC3)cc2)cc1 (centres unmarked) [Co. No. 104] | 7.94 nM |  |
| CCCNC(=O)C(c1ccccc1)C1CCN(c2ccc(NC(=O)c3ccccc3-c3ccc(C(C)(C)C)cc3)cc2)CC1 (centres unmarked) [Co. No. 132] | 50.2 nM |  |
| CCNC(=O)C(c1ccccc1)C1CCN(c2ccc(NC(=O)c3ccccc3-c3cc(Cl)cc(Cl)c3)cc2)CC1 (centres unmarked) [Co. No. 49] | 236 nM |  |
| O=C(Nc1ccc(N2CCN(C(C(=O)OCc3ccccc3)c3ccccc3)CC2)cc1)c1ccccc1-c1ccccc1 (centres unmarked) [Co. No. 147] | 287 nM |  |
| O=C(Nc1ccc(N2CCN(CC(C(=O)NCC(F)(F)F)c3ccccc3)CC2)cc1)c1ccccc1-c1ccc(C(F)(F)F)cc1 (centres unmarked) [Co. No. 66] | 79.6 nM |  |
| O=C(Nc1ccc(N2CCC(C(C(=O)Nc3ccccc3)c3ccccc3)CC2)cc1)c1ccccc1-c1ccc(Cl)c(Cl)c1 (centres unmarked) [Co. No. 110] | 158 nM |  |
| O=C(Nc1ccc(N2CCC(C(C(=O)Oc3ccccc3)c3ccccc3)CC2)cc1)c1ccccc1-c1ccc(C(F)(F)F)cc1 (centres unmarked) [Co. No. 175] | < 30 nM |  |
| O=C(Nc1ccc(C2CCN(C(C(=O)OCc3ccccc3)c3ccccc3)CC2)cc1)c1ccccc1-c1ccc(C(F)(F)F)cc1 (centres unmarked) [Co. No. 151] | 612 nM |  |
| O=C(Nc1ccc(N2CCC(C(C(=O)Nc3ccccc3)c3ccccc3)CC2)cc1)c1ccccc1-c1ccc(Cl)cc1 (centres unmarked) [Co. No. 113] | 115 nM |  |
| O=C(Nc1ccc(C2CCN(C(C(=O)NCc3cccnc3)c3ccccc3)CC2)cc1)c1ccccc1-c1ccc(C(F)(F)F)cc1 (centres unmarked) [Co. No. 76] | 51.8 nM |  |
| CCCNC(=O)C(c1ccccc1)C1CCN(c2ccc(NC(=O)c3ccccc3-c3ccc(F)cc3)cc2)CC1 (centres unmarked) [Co. No. 44] | 1040 nM |  |
| CCNC(=O)C(c1ccccc1)N1CCN(c2ccc(NC(=O)c3cc(OC)ccc3-c3ccc(C(F)(F)F)cc3)cc2)CC1 (centres unmarked) [Co. No. 195] | 89.7 nM |  |
| COC(=O)C(c1ccccc1)C1CCN(c2ccc(NC(=O)c3cccc(C)c3-c3ccc(C(C)C)cc3)cc2)CC1 (centres unmarked) [Co. No. 235] | < 30 nM |  |
| CC(C)NC(=O)C(c1ccccc1)C1CCN(c2ccc(NC(=O)c3cccc4c3-c3ccccc3C4)cc2)CC1 (centres unmarked) [Co. No. 21] | 245 nM |  |
| CCNC(=O)C(c1ccccc1)N1CCN(c2ccc(NC(=O)c3ccc(C)cc3-c3ccc(C(F)(F)F)cc3)cc2)CC1 (centres unmarked) [Co. No. 194] | 43 nM |  |
| CCC(CC)OC(=O)C(c1ccccc1)N1CCC(c2ccc(NC(=O)c3ccccc3-c3ccc(C(F)(F)F)cc3)cc2)CC1 (centres unmarked) [Co. No. 224] | 557 nM |  |
| O=C(Nc1ccc(N2CCN(C(C(=O)Oc3ccccc3)c3ccccc3)CC2)cc1)c1ccccc1-c1ccc(C(F)(F)F)cc1 (centres unmarked) [Co. No. 158] | 21.3 nM |  |

| Structure (SMILES) | IC50 (HepG2, 24 h) | other results |
| --- | --- | --- |
| CC(C)OC(=O)C(c1ccccc1)N1CCC(c2ccc(NC(=O)c3ccccc3-c3ccc(C(F)(F)F)cc3)cc2)CC1 (centres unmarked) [Co. No. 223] | 370 nM |  |
| C=CCNC(=O)C(c1ccccc1)N1CCC(c2ccc(NC(=O)c3ccccc3-c3ccc(C(F)(F)F)cc3)cc2)CC1 (centres unmarked) [Co. No. 71] | 10.3 nM |  |
| O=C(Nc1ccc(C2CCN(C(C(=O)OCCc3ccccc3)c3ccccc3)CC2)cc1)c1ccccc1-c1ccc(C(F)(F)F)cc1 (centres unmarked) [Co. No. 266] | 25.6 nM |  |
| COC(=O)C(c1ccc(Cl)cc1)N1CCN(c2ccc(NC(=O)c3ccccc3-c3ccc(C(F)(F)F)cc3)cc2)CC1 (centres unmarked) [Co. No. 263] | 279 nM |  |
| CCNC(=O)C(c1ccc(F)cc1)C1CCN(c2ccc(NC(=O)c3ccccc3-c3ccc(C(F)(F)F)cc3)cc2)CC1 (centres unmarked) [Co. No. 256] | 15.1 nM |  |
| CCCNC(=O)C(c1ccccc1)C1CCN(c2ccc(NC(=O)c3ccccc3C(=O)c3ccccc3)cc2)CC1 (centres unmarked) [Co. No. 15] | 205 nM |  |
| C=CCNC(=O)C(c1ccccc1)N1CCC(c2ccc(NC(=O)c3ccccc3-c3ccccc3)cc2)CC1 (centres unmarked) [Co. No. 163] | 250 nM |  |
| CC(C)=CCOC(=O)C(c1ccccc1)N1CCC(c2ccc(NC(=O)c3ccccc3-c3ccc(C(F)(F)F)cc3)cc2)CC1 (centres unmarked) [Co. No. 220] | < 30 nM |  |
| CCNC(=O)C(c1ccccc1)C1CCN(c2ccc(NC(=O)c3ccccc3-c3ccc(Cl)cc3)cc2)CC1 (centres unmarked) [Co. No. 91] | 8.69 nM |  |
| CC(C)CCOC(=O)C(c1ccccc1)N1CCC(c2ccc(NC(=O)c3ccccc3-c3ccc(C(F)(F)F)cc3)cc2)CC1 (centres unmarked) [Co. No. 227] | 187 nM |  |
| CCCNC(=O)C(c1ccccc1)N1CCC(c2ccc(NC(=O)c3ccccc3-c3ccc(C(F)(F)F)cc3)cc2)CC1 (centres unmarked) [Co. No. 70] | ≤ 30 nM |  |
| O=C(Nc1ccc(N2CCC(C(C(=O)Nc3ccccc3)c3ccccc3)CC2)cc1)c1ccccc1COc1ccccc1 (centres unmarked) [Co. No. 32] | 2390 nM |  |
| CC(C)NC(=O)C(c1ccccc1)C1CCN(c2ccc(NC(=O)c3ccccc3OCc3ccccc3)cc2)CC1 (centres unmarked) [Co. No. 26] | 275 nM |  |
| O=C(Nc1ccc(C2CCN(C(C(=O)NCc3ccccc3)c3ccccc3)CC2)cc1)c1ccccc1-c1ccc(C(F)(F)F)cc1 (centres unmarked) [Co. No. 79] | 50 nM |  |
| CCNC(=O)C(c1ccccc1)C1CCN(c2ccc(NC(=O)c3ccccc3-c3ccc(C)cc3)cc2)CC1 (centres unmarked) [Co. No. 94] | 44.1 nM |  |
| CCNC(=O)C(c1ccccc1)C1CCN(c2ccc(NC(=O)c3ccccc3-c3cccc(C(F)(F)F)c3)cc2)CC1 (centres unmarked) [Co. No. 96] | 32.1 nM |  |
| COC(=O)C(c1ccccc1)N1CCN(c2ccc(NC(=O)c3ccccc3-c3ccc(C(F)(F)F)cc3)cc2Cl)CC1 (centres unmarked) [Co. No. 205] | 47.5 nM |  |
| CCCNC(=O)C(c1ccccc1)C1CCN(c2ccc(NC(=O)c3ccccc3-c3ccccc3Cl)cc2)CC1 (centres unmarked) [Co. No. 45] | ≥ 3000 nM |  |
| CCCNC(=O)C(c1ccccc1)C1CCN(c2ccc(NC(=O)c3ccccc3-c3ccccc3C)cc2)CC1 (centres unmarked) [Co. No. 131] | 417 nM |  |
| O=C(Nc1ccc(N2CCN(C(C(=O)Oc3ccccc3)c3ccccc3)CC2)cc1)c1ccccc1-c1ccccc1 (centres unmarked) [Co. No. 150] | 173 nM |  |
| CCNC(=O)C(c1ccccc1)C1CCN(c2ccc(NC(=O)c3ccccc3-c3ccc(F)cc3)cc2)CC1 (centres unmarked) [Co. No. 92] | 63.2 nM |  |

| Structure (SMILES) | IC50 (HepG2, 24 h) | other results |
| --- | --- | --- |
| O=C(Nc1ccc(C2=CCN(C(C(=O)Nc3ccccc3)c3ccccc3)CC2)cc1)c1ccccc1-c1ccc(C(F)(F)F)cc1 (centres unmarked) [Co. No. 164] | 100 nM |  |
| COC(=O)C(c1ccccc1)N1CCN(c2ccc(NC(=O)c3cc(C)ccc3-c3ccc(C(F)(F)F)cc3)cc2)CC1 (centres unmarked) [Co. No. 189] | 105 nM |  |
| CCNC(=O)N(c1ccccc1)C1CCN(c2ccc(NC(=O)c3ccccc3-c3ccc(C(F)(F)F)cc3)cc2)CC1 [Co. No. 252] |  | IC50: 12.2 nM |
| COC(=O)C(c1ccccc1)N1CCN(c2ccc(NC(=O)c3c(C)cccc3-c3ccc(C(F)(F)F)cc3)cc2)CC1 (centres unmarked) [Co. No. 188] | 10 nM |  |
| CCCNC(=O)C(c1ccccc1)C1CCN(c2ccc(NC(=O)c3ccccc3-c3ccccc3C(F)(F)F)cc2)CC1 (centres unmarked) [Co. No. 130] | 360 nM |  |
| CCNC(=O)C(c1ccccc1)N1CCN(c2ccc(NC(=O)c3ccccc3-c3ccc(C(F)(F)F)cc3)c(C)c2)CC1 (centres unmarked) [Co. No. 215] | < 30 nM |  |
| COc1ccc(-c2ccccc2C(=O)Nc2ccc(N3CCC(C(C(=O)Nc4ccccc4)c4ccccc4)CC3)cc2)cc1 (centres unmarked) [Co. No. 116] | 385 nM |  |
| CCNC(=O)C(c1ccccc1)N1CCN(c2cc(C)c(NC(=O)c3ccccc3-c3ccc(C(F)(F)F)cc3)c(C)c2)CC1 (centres unmarked) [Co. No. 216] | 47.1 nM |  |
| CCC(CC)OC(=O)C(c1ccccc1)C1CCN(c2ccc(NC(=O)c3ccccc3-c3ccc(C(F)(F)F)cc3)cc2)CC1 (centres unmarked) [Co. No. 247] | > 3000 nM |  |
| COC(=O)C(c1ccccc1)N1CCN(c2cc(C)c(NC(=O)c3ccccc3-c3ccc(C(F)(F)F)cc3)c(C)c2)CC1 (centres unmarked) [Co. No. 209] | 7.96 nM |  |
| CCNC(=O)C(c1ccccc1)N1CCC(c2ccc(NC(=O)c3ccccc3-c3ccc(C(F)(F)F)cc3)cc2)CC1 (centres unmarked) [Co. No. 69, N-[4-[1-[2-(ethylamino)-2-oxo-1-phenylethyl]-4-piperidinyl]phenyl]-4′-(trifluoromethyl)-[1,1′-biphenyl]-2-carboxamide] | 8.89 nM |  |
| CC(C)NC(=O)C(c1ccccc1)C1CCN(c2ccc(NC(=O)c3ccccc3COc3ccccc3)cc2)CC1 (centres unmarked) [Co. No. 25] | 287 nM |  |
| CCNC(=O)C(c1ccccc1)C1CCN(c2ccc(NC(=O)c3ccccc3-c3ccccc3C)cc2)CC1 (centres unmarked) [Co. No. 85, N-[4-[4-[2-(ethylamino)-2-oxo-1-phenylethyl]-1-piperidinyl]phenyl]-2′-methyl-[1,1′-biphenyl]-2-carboxamide] | 129 nM |  |
| CCNC(=O)C(c1ccccc1)C1CCN(c2ccc(NC(=O)c3ccccc3-c3cccc4ccccc34)cc2)CC1 (centres unmarked) [Co. No. 134] | 65.3 nM |  |
| O=C(Nc1ccc(N2CCC(C(C(=O)Nc3ccccc3)c3ccccc3)CC2)cc1)c1cccc2c1-c1ccccc1C2 (centres unmarked) [Co. No. 129] | 2770 nM |  |
| O=C(Nc1ccc(N2CCC(C(C(=O)Nc3ccccc3)c3ccccc3)CC2)cc1)c1cccc2c1Cc1ccccc1-2 (centres unmarked) [Co. No. 29] | ≥ 3000 nM |  |
| O=C(Nc1ccc(C2CCN(C(C(=O)NCc3ccccn3)c3ccccc3)CC2)cc1)c1ccccc1-c1ccc(C(F)(F)F)cc1 (centres unmarked) [Co. No. 77] | ≤ 30 nM |  |
| O=C(Nc1ccc(N2CCC(C(C(=O)Nc3ccccc3)c3ccccc3)CC2)cc1)c1ccccc1CSc1ccccc1 (centres unmarked) [Co. No. 31] | 1280 nM |  |
| CCCNC(=O)C(c1ccccc1)C1CCN(c2ccc(NC(=O)c3ccccc3COc3ccccc3)cc2)CC1 (centres unmarked) [Co. No. 17] | 199 nM |  |
| CCNC(=O)C(c1ccccc1)N1CCCN(c2ccc(NC(=O)c3ccccc3-c3ccc(C(F)(F)F)cc3)cc2)CC1 (centres unmarked) [Co. No. 122] | 414 nM |  |
